Measured values from PubChem BioAssay (NCI).
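Exposure lasted 48 hours, with cells grown in 96-well plates and compounds tested at five concentrations. Definition used: TGI = concentration required for complete inhibition of growth.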

Experiments:
Assay in all cases: growth of human tumour cells (NCI), 48 h
OVCAR-8 ovarian = system: OVCAR-8 ovarian
OVCAR-5 ovarian = system: OVCAR-5 ovarian
SNB-19 CNS = system: SNB-19 CNS
SK-MEL-2 melanoma = system: SK-MEL-2 melanoma
HOP-92 NSCLC = system: HOP-92 NSCLC
NCI-H460 lung = system: NCI-H460 lung
HL-60(TB) leukemia = system: HL-60(TB) leukemia
HCT-15 colon = system: HCT-15 colon
UO-31 renal = system: UO-31 renal
HS 578T breast = system: HS 578T breast
SK-OV-3 ovarian = system: SK-OV-3 ovarian
MDA-MB-435 = system: MDA-MB-435
RPMI-8226 leukemia = system: RPMI-8226 leukemia
U251 CNS = system: U251 CNS
BT-549 breast = system: BT-549 breast
ACHN renal = system: ACHN renal
MDA-MB-231 breast = system: MDA-MB-231 breast
CCRF-CEM leukemia = system: CCRF-CEM leukemia
T-47D breast = system: T-47D breast
SR leukemia = system: SR leukemia
MOLT-4 leukemia = system: MOLT-4 leukemia
SW-620 colon = system: SW-620 colon
HT29 colon = system: HT29 colon
UACC-257 melanoma = system: UACC-257 melanoma
HCT-116 colon = system: HCT-116 colon
LOX IMVI melanoma = system: LOX IMVI melanoma
786-0 renal = system: 786-0 renal
SK-MEL-28 melanoma = system: SK-MEL-28 melanoma
HOP-62 NSCLC = system: HOP-62 NSCLC
SF-268 CNS = system: SF-268 CNS
SF-295 CNS = system: SF-295 CNS
RXF 393 renal = system: RXF 393 renal
SK-MEL-5 melanoma = system: SK-MEL-5 melanoma
TK-10 renal = system: TK-10 renal
UACC-62 melanoma = system: UACC-62 melanoma
M14 melanoma = system: M14 melanoma
CAKI-1 renal = system: CAKI-1 renal
COLO 205 colon = system: COLO 205 colon
OVCAR-4 ovarian = system: OVCAR-4 ovarian
SNB-75 CNS = system: SNB-75 CNS
PC-3 prostate = system: PC-3 prostate
OVCAR-3 ovarian = system: OVCAR-3 ovarian
MCF7 breast = system: MCF7 breast
NCI-H23 lung = system: NCI-H23 lung
A549 NSCLC = system: A549 NSCLC
KM12 colon = system: KM12 colon
NCI/ADR-RES ovarian = system: NCI/ADR-RES ovarian
NCI-H226 lung = system: NCI-H226 lung
DU-145 prostate = system: DU-145 prostate
EKVX NSCLC = system: EKVX NSCLC
SN12C renal = system: SN12C renal
SF-539 CNS = system: SF-539 CNS
A498 renal = system: A498 renal
MDA-N = system: MDA-N
HCC-2998 colon = system: HCC-2998 colon
K-562 leukemia = system: K-562 leukemia
MALME-3M melanoma = system: MALME-3M melanoma
NCI-H522 lung = system: NCI-H522 lung
IGROV1 ovarian = system: IGROV1 ovarian

Measured: TGI

Cn1c(-c2ccccc2)cc(-c2ccc3c(c2)OCO3)c1-c1ccsc1
not listed: MALME-3M melanoma | NCI-H522 lung | IGROV1 ovarian
> 100 µM: all other assays above

CC(C)CNC1=NCC(C)S1 (stereo not given)
not listed: OVCAR-8 ovarian | 786-0 renal | OVCAR-4 ovarian | NCI/ADR-RES ovarian | SN12C renal
> 100 µM: all other assays above

O=C1NC(=O)C(CCC(=O)c2cccc3ccccc23)C(=O)N1
not listed: CCRF-CEM leukemia | HOP-62 NSCLC | TK-10 renal | EKVX NSCLC | MALME-3M melanoma | NCI-H522 lung | IGROV1 ovarian
> 100 µM: all other assays above

Cc1nc(C(N)=S)sc1C(=O)CC(=O)C(=O)Nc1ccc(Br)cc1
not listed: SNB-19 CNS | SR leukemia | MOLT-4 leukemia | COLO 205 colon | DU-145 prostate | HCC-2998 colon
> 100 µM: all other assays above
